For series [1] the following is noted: 298 K; 101.33 kPa; Liquid; Vibrating tube method.
Series [2] in a line: refractive index (Na D-line) (dimensionless). Conditions: 298 K; 101.33 kPa; Liquid; Standard Abbe refractometry.

± gives the expanded uncertainty stated by the source.

For orientation: mass density means mass per unit of volume. What is called refractive index is a measure of how strongly the sample bends light.

Take `Clc1ccccc1` [chlorobenzene]: the mass density in series [1] amounted to 1101.08 ± 0.44 kg/m3. Besides, in series [2], the refractive index stood at 1.52165 ± 0.00042.
Taken in the same sequence, the figures for `CC(O)c1ccccc1` (stereo not drawn) [1-phenylethanol] were 1006.48 ± 0.38 kg/m3 and 1.52467 ± 0.00042.
For the molecule `CCCCC(=O)O` [pentanoic acid], the mass density in series [1] came to 935.04 ± 0.37 kg/m3. Also, the refractive index in series [2] came out at 1.40718 ± 0.00042.
On to `c1ccc(COCc2ccccc2)cc1` [dibenzyl ether], for which, in series [1], the mass density amounted to 1039.32 ± 0.4 kg/m3. For the same molecule, in series [2], the refractive index is on record as 1.56019 ± 0.00042.

These data come from the NIST ThermoML archive (doi:10.1016/j.fluid.2016.01.050).
